Experimental data: ChEMBL document CHEMBL1136669, “Synthesis of aza and oxaglutamyl-p-nitroanilide derivatives and their kinetic studies with gamma-glutamyltranspeptidase” (Bioorg Med Chem Lett, 2003)
Values belong to the compound of their own block, whether it stands above or below them. Activity calls are given as the source filed them. No cut-off for these calls is given here.

Columns and labels:
[1] = target: Glutathione hydrolase 1 proenzyme (Rattus norvegicus) (UniProt P07314); assay: Kinetic constant acting as acceptor substrate for gamma-GGT (Glutamyltranspeptidase)-mediated transpeptidation was determined in rat kidney (units are 10e3/min); format: tissue-based
[2] = target: Glutathione hydrolase 1 proenzyme (Rattus norvegicus) (UniProt P07314); assay: Kinetic constant acting as donor substrate for gamma-GGT (Glutamyltranspeptidase)-mediated transpeptidation was determined in rat kidney (units are 10e3/min); format: tissue-based
[3] = Ratio of kinetic constant (Kcat/KM) acting as acceptor substrate for gamma-GGT (Glutamyltranspeptidase)-mediated transpeptidation was determined in rat kidney; parameters: unit not given here
[4] = Ratio of kinetic constant (Kcat/KM) acting as donor substrate for gamma-GGT (Glutamyltranspeptidase)-mediated transpeptidation was determined in rat kidney
[5] = target: Glutathione hydrolase 1 proenzyme (Rattus norvegicus) (UniProt P07314); assay: Kinetic constant acting as donor substrate for gamma-GGT (Glutamyltranspeptidase)-mediated transpeptidation was determined (units are 10e3/min); Inactive at 2 mM with 33.8 mU of GGT in rat kidney; format: tissue-based
[6] = Ratio of kinetic constant (Kcat/KM) acting as donor substrate for gamma-GGT (Glutamyltranspeptidase)-mediated transpeptidation was determined in rat kidney; Inactive at 2 mM with 33.8 mU of GGT in rat kidney
[7] = target: Glutathione hydrolase 1 proenzyme (Rattus norvegicus) (UniProt P07314); assay: Kinetic constant acting as donor substrate for gamma-GGT (Glutamyltranspeptidase)-mediated transpeptidation was determined in rat kidney (units are 10e3/min); Not applicable; format: tissue-based
[8] = Ratio of kinetic constant (Kcat/KM) acting as donor substrate for gamma-GGT (Glutamyltranspeptidase)-mediated transpeptidation was determined in rat kidney; Not applicable
[9] = target: Glutathione hydrolase 1 proenzyme (Rattus norvegicus) (UniProt P07314); assay: Kinetic constant acting as acceptor substrate for gamma-GGT (Glutamyltranspeptidase)-mediated transpeptidation was determined in rat kidney (units are 10e3/min); Solubility- Insoluble for concentration greater than 15 mM; format: tissue-based
[10] = target: Glutathione hydrolase 1 proenzyme (Rattus norvegicus) (UniProt P07314); assay: Kinetic constant acting as donor substrate for gamma-GGT (Glutamyltranspeptidase)-mediated transpeptidation was determined in rat kidney (units are 10e3/min); Inactive at 2 mM with 33.8 mU of GGT; format: tissue-based
[11] = Ratio of kinetic constant (Kcat/KM) acting as acceptor substrate for gamma-GGT (Glutamyltranspeptidase)-mediated transpeptidation was determined in rat kidney; Solubility- Insoluble for concentration greater than 15 mM
[12] = Ratio of kinetic constant (Kcat/KM) acting as donor substrate for gamma-GGT (Glutamyltranspeptidase)-mediated transpeptidation was determined in rat kidney; Inactive at 2 mM with 33.8 mU of GGT
[13] = target: Glutathione hydrolase 1 proenzyme (Rattus norvegicus) (UniProt P07314); assay: Compound was tested for the mixed non-competitive inhibition of rat kidney gamma-glutamyltranspeptidase (gamma-GGT)
[14] = test system: COC(=O)[C@@H](N)CNC(=O)Nc1ccc([N+](=O)[O-])cc1; assay: Kinetic constant acting as donor substrate for gamma-GGT (Glutamyltranspeptidase)-mediated transpeptidation was determined; Inactive at 2 mM with 33.8 mU of GGT in rat kidney; format: tissue-based
[15] = test system: COC(=O)[C@@H](N)COC(=O)Nc1ccc([N+](=O)[O-])cc1; assay: (§1) Kinetic constant acting as donor substrate for gamma-GGT (Glutamyltranspeptidase)-mediated transpeptidation was determined; in rat kidney; Inactive at 2 mM with 33.8 mU of GGT
[16] = test system: N[C@@H](CNC(=O)Nc1ccc([N+](=O)[O-])cc1)C(=O)O; assay: as §1
[17] = test system: N[C@@H](CNC(=O)Nc1ccc([N+](=O)[O-])cc1)C(=O)O; assay: Kinetic constant acting as acceptor substrate for gamma-GGT (Glutamyltranspeptidase)-mediated transpeptidation was determined in rat kidney; Solubility- Insoluble for concentration greater than 15 mM
[18] = test system: COC(=O)[C@@H](N)CCC(=O)Nc1ccc([N+](=O)[O-])cc1; assay: (§2) Kinetic constant acting as donor substrate for GGT (gamma-Glutamyltranspeptidase)-mediated transpeptidation was determined in rat kidney; format: tissue-based
[19] = test system: N[C@@H](CCC(=O)Nc1ccc([N+](=O)[O-])cc1)C(=O)O; assay: as §2; format: tissue-based
COC(=O)[C@@H](N)CO [20] = assay: Kinetic constant acting as donor substrate for gamma-GGT (Glutamyltranspeptidase)-mediated transpeptidation was determined in rat kidney; Not applicable
[21] = test system: COC(=O)[C@@H](N)CCC(=O)Nc1ccc([N+](=O)[O-])cc1; assay: (§3) Kinetic constant acting as acceptor substrate for gamma-GGT (Glutamyltranspeptidase)-mediated transpeptidation was determined in rat kidney
[22] = test system: COC(=O)[C@@H](N)CNC(=O)Nc1ccc([N+](=O)[O-])cc1; assay: as §3
[23] = test system: COC(=O)[C@@H](N)COC(=O)Nc1ccc([N+](=O)[O-])cc1; assay: as §3
COC(=O)[C@@H](N)CO [24] = assay: as §3
[25] = test system: N[C@@H](CCC(=O)Nc1ccc([N+](=O)[O-])cc1)C(=O)O; assay: as §3

Glutathione hydrolase 1 proenzyme (Rattus norvegicus), sequence (P07314 1-379 limits assumed): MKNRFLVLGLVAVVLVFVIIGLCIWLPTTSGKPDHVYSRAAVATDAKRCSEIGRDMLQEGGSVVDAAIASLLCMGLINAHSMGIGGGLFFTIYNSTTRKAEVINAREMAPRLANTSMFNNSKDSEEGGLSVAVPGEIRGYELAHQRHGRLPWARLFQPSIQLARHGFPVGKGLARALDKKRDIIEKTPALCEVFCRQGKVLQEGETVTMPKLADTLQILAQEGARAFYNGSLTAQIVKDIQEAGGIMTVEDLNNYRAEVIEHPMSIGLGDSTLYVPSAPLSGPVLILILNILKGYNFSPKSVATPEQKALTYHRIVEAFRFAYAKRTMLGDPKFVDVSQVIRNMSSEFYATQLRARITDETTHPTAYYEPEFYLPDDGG
Glutathione hydrolase 1 proenzyme (Rattus norvegicus), sequence (P07314 380-568 limits assumed): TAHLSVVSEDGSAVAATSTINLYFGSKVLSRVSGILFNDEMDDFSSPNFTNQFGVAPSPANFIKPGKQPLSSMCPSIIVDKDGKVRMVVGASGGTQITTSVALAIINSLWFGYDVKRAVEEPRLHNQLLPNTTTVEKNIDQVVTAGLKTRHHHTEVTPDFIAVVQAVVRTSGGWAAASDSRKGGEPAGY
Glutathione hydrolase 1 proenzyme (Rattus norvegicus), P07314, sequence (P07314 whole entry): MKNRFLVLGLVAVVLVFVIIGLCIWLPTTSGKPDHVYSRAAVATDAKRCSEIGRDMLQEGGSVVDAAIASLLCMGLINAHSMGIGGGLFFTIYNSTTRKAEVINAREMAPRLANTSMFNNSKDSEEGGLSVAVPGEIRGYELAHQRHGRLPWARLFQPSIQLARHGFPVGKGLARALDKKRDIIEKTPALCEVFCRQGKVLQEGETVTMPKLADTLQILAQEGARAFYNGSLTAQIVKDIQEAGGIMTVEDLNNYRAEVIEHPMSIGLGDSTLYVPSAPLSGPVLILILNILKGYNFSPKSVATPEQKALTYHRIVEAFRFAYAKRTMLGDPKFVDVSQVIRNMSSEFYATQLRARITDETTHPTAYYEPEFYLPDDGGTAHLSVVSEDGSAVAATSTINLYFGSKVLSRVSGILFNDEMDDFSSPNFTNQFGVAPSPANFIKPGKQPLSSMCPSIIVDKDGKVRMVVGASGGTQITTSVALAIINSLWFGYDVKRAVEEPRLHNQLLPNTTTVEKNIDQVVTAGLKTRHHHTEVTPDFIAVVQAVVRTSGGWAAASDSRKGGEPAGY

Compound: COC(=O)[C@@H](N)CNC(=O)Nc1ccc([N+](=O)[O-])cc1
- k cat [1]: 102 s⁻¹
- k cat [5]: inactive
- Ratio [3]: 1.4e+06
- Ratio [6]: inactive

Compound: N[C@@H](CNC(=O)Nc1ccc([N+](=O)[O-])cc1)C(=O)O
- k cat [9]: Insoluble
- k cat [10]: inactive
- Ratio [11]: Insoluble
- Ratio [12]: inactive
- Ki' uncomp [13]: 1.7 mM

Compound: Glutathione hydrolase 1 proenzyme (Rattus norvegicus), P07314
- Km [14]: Not Active
- Km [15]: Not Active
- Km [16]: Not Active
- Km [17]: Insoluble
- Km [18]: 5.7 mM
- Km [19]: 0.47 mM
- Km (COC(=O)[C@@H](N)CO [20]): Not Active
- Km [21]: 6 mM
- Km [22]: 4 mM
- Km [23]: 1.5 mM
- Km (COC(=O)[C@@H](N)CO [24]): 34 mM
- Km [25]: 6.3 mM

Compound: N[C@@H](CCC(=O)Nc1ccc([N+](=O)[O-])cc1)C(=O)O
- k cat [1]: 267 s⁻¹
- k cat [2]: 1.15 s⁻¹
- Ratio [3]: 2.5e+06
- Ratio [4]: 1.5e+08

Compound: COC(=O)[C@@H](N)COC(=O)Nc1ccc([N+](=O)[O-])cc1
- k cat [1]: 80 s⁻¹
- k cat [10]: inactive
- Ratio [3]: 3e+06
- Ratio [12]: inactive

Next, values leading:

- k cat [1]: 53.3 s⁻¹
- k cat [2]: 25 s⁻¹
- Ratio [3]: 580000
- Ratio [4]: 270000
Compound: COC(=O)[C@@H](N)CCC(=O)Nc1ccc([N+](=O)[O-])cc1

- k cat [1]: 21.7 s⁻¹
- k cat [7]: inactive
- Ratio [3]: 38000
- Ratio [8]: inactive
Compound: COC(=O)[C@@H](N)CO
